Reference: patent US10864190B2 (CeMM—Forschungszentrum für Molekulare Medizin GmbH, priority 2015, dated 2020)

Assays:
[1] = tested on: LNCaP cells; assay: Dose-response matrix, viability of LNCaP cells; type: cell-based; settings: 3 days, antiandrogen in combination with phenprocoumon
Protocol: LNCaP (ATCC, Manassas, Va., USA, CRL-1740) and PC-3 (ATCC, CRL-1435) cells were grown in RPMI-1640 supplemented with 10% fetal bovine serum (Thermo Fisher Scientific) and 1% penicillin/streptomycin (Sigma-Aldrich). For steroid-deprived experiments, LNCaP cells were cultured in RPMI-1640 supplemented with 10% charcoal stripped fetal bovine serum (Thermo Fisher Scientific) and 1% penicillin/streptomycin (Sigma-Aldrich).
CLOUD drugs and combinations thereof were transferred on 384-well plates using an acoustic liquid handler (Echo, Labcyte, Sunnyvale, Calif., USA) and 5,000 cells/well were dispensed on top of the drugs using a dispenser (Thermo Fisher Scientific) for a total of 50 μl/well. Viability was measured after 72 hours using CellTiter-Glo (Promega, Fitchburg, Wis., USA) in a multilabel plate reader (EnVision, PekinElmer, Waltham, Mass., USA). Signal was then normalized to negative (DMSO) and positive (10 μM dasatinib) controls and set between 0 and 100. […] Drug combinations were analyzed according to the Bliss independence model (Bliss C I, Ann Appl Biol, 1939, 26:585-615). Briefly, the effect of the combination of drug A and drug B can be predicted to be C=A+B−A*B where A and B are the effects of the single drugs expressed as fractional inhibition between 0 and 1. A deviation of the experimental value from the Bliss prediction was calculated. […]

[2] = tested on: AR signaling canonical targets (KLK3, TMPRSS2, KLK2) and AR; assay: RT-qPCR of AR and canonical targets of AR signaling in LNCaP cells; type: cell-based; settings: 24 hours
Protocol: The RNeasy kit (Qiagen, Venlo, Netherlands) was used to extract RNA. cDNA was produced and reverse transcription quantitative polymerase chain reaction performed using the High Capacity cDNA Reverse Transcription kit and the SYBR Green Master mix from Thermo Fisher Scientific. Reverse transcription quantitative polymerase chain reaction was performed on a LightCycler 480 (Roche, Basel, Switzerland).

[3] = biological target: T1, androgen receptor (AR) (Homo sapiens, UniProt P10275, T878A); assay: Cellular thermal shift assay (CETSA); type: binding
T1 construct: AR immunoprecipitated from LNCaP cells treated with either DMSO or phenprocoumon; host or cells: LNCaP
Protocol: LNCaP cells were treated with DMSO or 35 μM PPC for 2 days and then harvested maintaining a constant concentration of PPC in all subsequent handling buffers. Otherwise, lysates were directly treated with the drug as already described (Martinez Molina D et al., Science, 2013, 341:84-7).

[4] = tested on: androgen receptor (AR); assay: 2D difference gel electrophoresis (DIGE) of immunoprecipitated AR; type: cell-based; settings: AR immunoprecipitated from LNCaP cells, versus DMSO
Protocol: (§1) Cells were lysed in IP buffer (50 mM Tris pH 8, 150 mM NaCl, 1% Igepal) supplemented with a cocktail of protease inhibitors (Roche). Immunoprecipitations were performed at 4° C. and using Dynabeads Protein G (Thermo Fisher Scientific). Lysates were precleared with beads for 30 minutes, incubated with antibodies overnight (1 μg antibody was used for 50 μg protein) and immunoprecipitated for 2 hours. After washing, immunoprecipitated proteins were eluted by either boiling in Laemmli buffer or using 50 mM glycine pH 2.8.
IP lysates eluted with glycine buffer were used for 2D difference gel electrophoresis (DIGE). […] Rehydration and isoelectric focusing on IPG strips (ReadyStrip IPG Strips, 11 cm, pH 3-10, non-linear (BioRad)) was followed by SDS-PAGE on gradient gels (Criterion, Any kD, BioRad) and detection with a Typhoon fluorescence scanner at the recommended excitation and emission wavelengths for G-Dye200 and G. Images were analyzed using Delta2D 4.3 software (Decodon, Greifswald, Germany).
The inventors then assessed whether phenprocoumon treatment could otherwise modify AR and analyzed the migration pattern of the protein by means of 2D gel electrophoresis (see FIG. 13H).

[5] = tested on: γ-carboxylated AR; assay: γ-carboxylation in LNCaP cells (western blotting, immunoprecipitation with anti-γ-carboxyglutamyl antibody); type: cell-based; settings: LNCaP lysates, increasing amounts of phenprocoumon
Protocol: Cells were lysed in RIPA buffer supplemented with a cocktail of protease inhibitors (Roche). Lysates were resolved by sodium dodecyl sulfate-polyacrylamide gel electrophoresis. AR (#5153) and GAPDH (#5174) antibodies were purchased from Cell Signaling Technology (Danvers, Mass., USA). αTUB antibody (ab7291) was purchased from Abcam (Cambridge, UK). Anti-γ-carboxyglutamyl antibody (REF 3570) was purchased from Sekisui Diagnostics (Lexington, Mass., USA).
as §1

T1 sequence (P10275 whole entry T878A): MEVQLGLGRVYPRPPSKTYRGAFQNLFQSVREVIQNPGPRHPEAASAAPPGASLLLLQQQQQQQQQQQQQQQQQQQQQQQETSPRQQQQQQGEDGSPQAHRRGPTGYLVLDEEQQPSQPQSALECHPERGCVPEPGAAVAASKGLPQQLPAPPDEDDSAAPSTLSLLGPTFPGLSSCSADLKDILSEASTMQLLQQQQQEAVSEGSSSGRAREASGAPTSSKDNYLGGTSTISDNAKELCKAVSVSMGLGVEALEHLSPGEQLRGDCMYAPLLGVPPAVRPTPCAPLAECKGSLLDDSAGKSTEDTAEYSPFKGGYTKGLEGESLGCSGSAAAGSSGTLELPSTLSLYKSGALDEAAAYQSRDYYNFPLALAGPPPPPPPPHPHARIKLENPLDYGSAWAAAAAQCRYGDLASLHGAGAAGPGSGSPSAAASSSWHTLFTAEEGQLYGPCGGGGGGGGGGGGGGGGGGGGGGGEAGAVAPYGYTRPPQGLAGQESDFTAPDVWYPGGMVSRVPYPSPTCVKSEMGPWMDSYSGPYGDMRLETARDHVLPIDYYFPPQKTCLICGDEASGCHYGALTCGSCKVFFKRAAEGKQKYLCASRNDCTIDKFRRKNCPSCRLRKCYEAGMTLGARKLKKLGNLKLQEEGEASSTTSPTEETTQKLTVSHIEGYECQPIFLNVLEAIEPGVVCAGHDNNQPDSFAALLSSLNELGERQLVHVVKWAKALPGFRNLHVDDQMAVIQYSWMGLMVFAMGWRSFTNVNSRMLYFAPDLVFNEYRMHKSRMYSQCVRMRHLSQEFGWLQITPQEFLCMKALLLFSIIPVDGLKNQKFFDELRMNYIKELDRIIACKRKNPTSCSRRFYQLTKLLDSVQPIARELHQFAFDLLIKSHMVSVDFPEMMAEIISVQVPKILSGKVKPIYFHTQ

Compound	synergy in combination with phenprocoumon [1]	effect on induction of AR signaling (KLK3, KLK2) by R1881 ([2]; 10 nM R1881 ± 35 μM PPC)	expression of AR signaling canonical targets KLK3, TMPRSS2 and KLK2 ([2]; steroid-deprived medium, 15 μM flutamide, 35 μM PPC)	thermal stability of AR ([3]; LNCaP cell lysates treated with 100 μM PPC for 30 min, no pretreatment)	thermal stability of AR ([3]; LNCaP cells treated with 35 μM PPC for 2 days)	isoelectric point of AR (migration pattern) [4]	amount of AR immunoprecipitated with γ-carboxylation-specific antibody [5]
CNC(=O)c1ccc(N2C(=S)N(c3ccc(C#N)c(C(F)(F)F)c3)C(=O)C2(C)C)cc1F [enzalutamide]	synergistic interaction with phenprocoumon, albeit to a lower extent compared to flutamide						
CC1(C)NC(=O)N(c2ccc([N+](=O)[O-])c(C(F)(F)F)c2)C1=O [nilutamide]	synergistic interaction with phenprocoumon, albeit to a lower extent compared to flutamide						
CCC(c1ccccc1)c1c(O)c2ccccc2oc1=O (centres unmarked) [phenprocoumon]		did not interfere with the induction of AR signaling	did not affect the expression of these genes	did not stabilize AR	affects the thermal stability of AR	migrated at a higher isoelectric point	reduced the amount of immunopreciptated protein in a dose-dependent manner
